Tests used:
[1] = rat, in vivo, 1.5 mg/kg
Experimental: The cannulas were placed either in the colon, duodenum and jugular vein for colonic bolus, duodenal bolus and intravenous bolus administration, respectively. A single bolus dose administration to each compartment was done. In addition, a second indwelling cannula was placed in the right vein of each animal for systemic blood sampling. Blood samples (0.5 ml) were taken at 5 minutes pre-dose, 5, 15, 30, 50, 90, 150 and 200 minutes post-dose. To prevent dehydration, equal volumes of physiological solution were administrated to the rats following each withdrawal of blood sample. […] Non-compartmental pharmacokinetic analysis was performed using Excel software. The area under the curve (AUC) was calculated by non-compartmental analysis to the final measurable sample using the linear-log trapezoid method.

[2] = tested on: MPTP mouse model of PD; assay: Rasagiline-pramipexole combinations in MPTP mouse model of PD, striatal dopamine by HPLC; format: in vivo; conditions: for dopamine levels compared to naïve mice: sustained release over 24 hours
Text: A significant body of biochemical data from human brain autopsy studies and those from animal models point to an ongoing process of oxidative stress in the substantia nigra which could initiate dopaminergic neurodegeneration.
MPTP is converted in the brain into the positively charged molecule MPP^+ (1-methyl-4-phenylpyridinium) by the enzyme monoamine oxidase (MAO)-B, causing parkinsonism in primates by killing certain dopamine-producing neurons in the substantia nigra. MPP^+ acts by interfering with oxidative phosphorylation in mitochondria, causing depletion of ATP and cell death.
(§1) Striatum tissue samples were homogenized in ice in 500 μl homogenization buffer (0.1M perchloric acid, 0.02% EDTA and 1% ETOH) using OMNI Tip homogenizing kit of OMNI International (intermediate speed, 3×10 seconds with 5 seconds intervals). The homogenates were sonicated for 5 min and were then centrifuged at 15,000 rpm at 4° C. for 15 min. The supernatants were transferred into fresh tubes and dopamine content was analyzed by HPLC.
The study included 10 groups of about 7-9 mice each, which were treated according to Table 1. […] MPTP was daily injected, during the initial 5 days (days 0-4), and the drug combinations were administered on days 0-11, either IP or using ALZET pump (ALZET micro-osmotic pump, model 1002 with a rate of 0.25 μl/hr, DURECT Corporation, Cupertino, USA) to simulate sustained release. Groups 5-7 were administered with the drug combination 30 min before MPTP application, daily during the initial five days (day 0-4), and on the following days (5-11) drugs are administrated approximately at the same time each dosing day. The ALZET pump was intraperitonealy implanted 15-17 hours before first MPTP administration (groups 8-10), and the total amount of drugs applied by the pump during the dosing period was identical to that given to the IP-injected groups. Controls were naïve untreated mice injected with saline, and MPTP-administered mice injected with saline.
Body weight was measured prior to dosing and every day during the dosing, and individual body weight changes were calculated. Clinical signs were recorded twice weekly throughout the entire study. At study termination day 12, all animals were euthanatized via CO2 asphyxiation. The brain was rapidly removed, placed on a refrigerated plate and dissected. The left and right striatum were removed, weighted, snap-frozen in liquid nitrogen, and stored in −70° C. until further processing. Striatum tissue samples were prepared for HPLC as described in Experimental.

[3] = tested on: 6-OHDA rat model of PD; conditions: 6-OHDA rats; SR by ALZET pump 28 days compared with daily IP injections; amphetamine 1.5 mg/kg IP, 60 min recording
Text: Since in PD it is mainly the dopaminergic nigrostriatal pathway that is subject to degeneration, animal models have been developed in which 6-OHDA lesions of the dopaminergic system were made by unilateral injection of the toxin directly into major efferent projection of the nigrostriatal bundle.
Unilaterally lesioning of the Medial Forebrain Bundle (MFB) by 6-OHDA causes unilaterally destruction of the dopaminergic neurons of the nigrostriatal pathway leading to asymmetry in motor behavior of rats. […] More specifically, administration of the DA-releasing agent D-amphetamine creates a dopamine imbalance that favors the nonlesioned nigrostriatal projection and thus produces clockwise rotations. […] Drug-induced rotations are measured using an automated rotometer consisting of a rotation bowl and a swivel attached to the torso of the rat.
Male adult Sprague-Dawley rats weighing 250-300 g were lesioned with 6-OHDA in the middle forebrain bundle (MFB). Rats were anesthetized with Ketamine-Xylazine (85:15) 0.1 ml/100 g and mounted in the stereotaxic apparatus. 6-OHDA was injected into unilateral MFB according to the following stereotaxic coordinates: AP-2.8 mm, ML-2 mm relatively to the bregma, and DV-9 relatively from the Dura. The injection rate was 1 μl/min using an injection pump and Hamilton micro-syringe. […]

[4] = tested on: MPTP mouse model of PD; assay: Aminoindan in MPTP mouse model of PD, striatal dopamine by HPLC; format: in vivo; conditions: MPTP mice; SR by ALZET pump for 12 days, compared with vehicle or daily IP injection of same drug
Experimental: as §1
Male C57B1/6 mice weighing 20+/−1 g were used in all experiments (10 mice per group). MPTP was administrated by IP injection at a dose of 40 mg/Kg per day for 5 days. Controls were naïve untreated mice injected with saline, and MPTP-treated mice injected with saline. Aminoindan was applied for 12 days either by daily IP injection or by sustained release using an ALZET pump implanted IP. The effect of the treatments was assessed by measurement of dopamine and its metabolites (dihydroxyphenylacetic acid and homovanillic acid) in left and right striatum taken from the mice at the end of the experiment. Striatum tissue samples were prepared for HPLC as described in Experimental.

SMILES	F (% of IV dose) [1]	AUC ([1]; iv)	CL ([1]; iv)	T1/2 ([1]; iv)	Vss ([1]; iv)	dopamine content compared to naïve mice ([2]; acute administration, rasagiline 0.1, 0.12 or 0.15 mg/kg (similar effect))	dopamine levels compared to naïve mice ([2]; rasagiline 0.1 mg/kg)	dopamine levels compared to naïve mice ([2]; rasagiline 0.12 mg/kg)	dopamine levels compared to naïve mice ([2]; rasagiline 0.15 mg/kg)	amphetamine-induced net rotation (CW-CCW) [3]	brain dopamine levels [4]
C#CCN[C@@H]1CCc2ccccc21 [rasagiline, R(+)—N-propargyl-1-aminoindan]	~100%	23,641 ± 3,481 hr * ng/ml	54.3 ± 7.1 mL/min/kg	42.7 ± 5.5 min	2,404 ± 408 ml/Kg	around 60%	57%	74%	88%	significantly improved effect in net rotation	–
NC1CCc2ccccc21 (centres unmarked) [aminoindan, 1-aminoindan]	–	–	–	–	–	–	–	–	–	–	significant restoration of dopamine levels
